{"source": "paper PMC11484942", "about": "“Rumicidins are a family of mammalian host-defense peptides plugging the 70S ribosome exit tunnel” (Nature Communications, 2024)", "key": {"E. coli 1057 WT": {"tested_on": "E. coli 1057 WT", "test": "microbe, parasite or virus in culture", "assay_type": "cell-based, Escherichia coli", "settings": "MHB + 0.9% NaCl", "quoted_text": "Minimum inhibitory concentrations (MIC) were determined by broth microdilution assay based on Clinical and Laboratory Standards Institute (CLSI) guidelines using BSA in the growth medium to minimize AMP nonspecific adsorption[49]. Bacterial test cultures were grown in the Mueller-Hinton broth (MHB, Sigma) at 37 °C to mid-log phase and then diluted with the 2× MH medium supplemented with 1.8% NaCl (or without salt) so that to reach a final cell concentration of 10^6 CFU/mL. 50 µL of the obtained bacterial suspension were added to aliquots of 50 µL of the peptide solutions serially diluted with sterilized 0.1% bovine serum albumin (BSA) in 96-well flat-bottom polystyrene microplates (Eppendorf #0030730011). […] To verify MIC values, the respiratory activity of the bacteria was determined. Briefly, 5 µL of 0.5 mg/mL resazurin (Sigma) was added to the wells after 24 h (or after 48 h for M. smegmatis) of incubation, and the plate was incubated for additional 3 h. In some cases, MICs were determined in the Lysogeny Broth (LB) or Middlebrook 7H9 medium. The reduction of resazurin to resorufin was recorded. […] The results were expressed as the median values determined based on at least three independent experiments performed in triplicate."}, "[1]": {"tested_on": "macrophages MΦ1 (THP-1 derived)", "test": "Cytokine response, multiplex xMAP", "assay_type": "cell-based, human", "settings": "2 µM peptide, 24 h", "procedure": "(§1) The acute monocytic leukemia THP-1 cell line (ATCC TIB-202) was cultured in the complete RPMI 1640 medium (Invitrogen) containing 10% FBS, 1× antibiotic-antimycotic solution (Invitrogen), and 0.05 mM β-mercaptoethanol, in the CO2-incubator (5% CO2, 37 °C). THP-1 cells were differentiated into proinflammatory macrophages (MΦ1) according to the previously reported protocol. Primary peripheral blood mononuclear cells (PBMC) collected from a healthy donor were purchased from ATCC (PCS-800-011), thawed, and seeded into a 96-well plate one day prior to the experiment at a density of 2 × 10^5 cells/well. Two different cell subpopulations (monocytes and T-/B-/NK-lymphocytes) were isolated from PBMC based on their adherence ability. Macrophages MΦ1 were washed out and seeded into 96-well plates at a density of 10^5 cells/well one day prior to the experiment. The next day, medium in each well was replaced by a fresh complete RPMI 1640 medium with or without 2 μM of a tested peptide (rumicidin-1 or LL-37). Cell cultures were kept in a CO2-incubator (5% CO2, 37 °C) for 24 h. Culture supernatants were collected 24 h later and stored at −70 °C degrees less than one week prior to the assessment of analytes. 26 analytes were measured at a protein level by multiplex xMAP technology using the MILLIPLEX MAP Human Cytokine/Chemokine Magnetic Bead Immunology Panel kit (HCYTOMAG-60K-27, Merck): eotaxin-1/CCL11, TGFα, GM-CSF, IFNα2, IFNγ, IL-10, IL-12p40, IL-12p70, IL-15, sCD40L, IL-17A, IL-1RA, IL-1α, IL-9, IL-1β, IL-2, IL-3, IL-4, IL-5, IL-6, IL-7, IL-8/CXCL8, IP-10/CXCL10, RANTES/CCL5, TNFα, TNFβ. Multiplex-based assay read-out was performed using the MAGPIX system (Merck) with the xPONENT 4.2 software (Merck) in accordance with the manufacturer’s instruction with overnight incubation of the samples with primary antibodies. The final analysis was carried out with the MILLIPLEX Analyst v5.1 software (Merck). Measurements were performed twice for each sample. The release of the analytes in control and experimental samples were compared by unpaired two-sample t-test using GraphPad Prism v.8.0.1. The p values ≤ 0.05 were considered significant."}, "Monocytes": {"tested_on": "Monocytes", "test": "Cytokine response, multiplex xMAP", "assay_type": "cell-based, human", "settings": "2 µM peptide, 24 h", "procedure": "as §1"}, "PBMC": {"tested_on": "PBMC", "test": "Cytokine response, multiplex xMAP", "assay_type": "cell-based, human", "settings": "2 µM peptide, 24 h", "procedure": "as §1"}}, "data": [{"compound": "CC[C@H](C)[C@H](NC(=O)[C@H](CCCCN)NC(=O)[C@H](CCC(=O)O)NC(=O)[C@H](CCCCN)NC(=O)[C@H](CO)NC(=O)[C@H](CCCCN)NC(=O)[C@H](CCCNC(=N)N)NC(=O)[C@H](Cc1ccccc1)NC(=O)[C@H](Cc1ccccc1)NC(=O)[C@H](CC(=O)O)NC(=O)CNC(=O)[C@H](CC(C)C)NC(=O)[C@@H](N)CC(C)C)C(=O)NCC(=O)N[C@@H](CCCCN)C(=O)N[C@@H](CCC(=O)O)C(=O)N[C@@H](Cc1ccccc1)C(=O)N[C@@H](CCCCN)C(=O)N[C@@H](CCCNC(=N)N)C(=O)N[C@H](C(=O)N[C@H](C(=O)N[C@@H](CCC(N)=O)C(=O)N[C@@H](CCCNC(=N)N)C(=O)N[C@H](C(=O)N[C@@H](CCCCN)C(=O)N[C@@H](CC(=O)O)C(=O)N[C@@H](Cc1ccccc1)C(=O)N[C@@H](CC(C)C)C(=O)N[C@@H](CCCNC(=N)N)C(=O)N[C@@H](CC(N)=O)C(=O)N[C@@H](CC(C)C)C(=O)N[C@H](C(=O)N1CCC[C@H]1C(=O)N[C@@H](CCCNC(=N)N)C(=O)N[C@H](C(=O)N[C@@H](CCC(=O)O)C(=O)N[C@@H](CO)C(=O)O)[C@@H](C)O)C(C)C)[C@@H](C)CC)C(C)C)[C@@H](C)CC", "note": "[LL-37]", "values": [{"measurement": "MIC", "setting": "E. coli 1057 WT", "result": 2, "unit": "µM"}, {"measurement": "GM-CSF", "setting": "[1]", "result": "1,32 pg/ml"}, {"measurement": "IFNa2", "setting": "[1]", "result": "4,35 pg/ml"}, {"measurement": "IFNg", "setting": "[1]", "result": "< 1.31", "unit": "pg/mL"}, {"measurement": "IL-1RA", "setting": "[1]", "result": "20,52 pg/ml"}, {"measurement": "IL-1a", "setting": "[1]", "result": "< 1.13", "unit": "pg/mL"}, {"measurement": "IL-1b", "setting": "[1]", "result": "10,63 pg/ml"}, {"measurement": "IL-2", "setting": "[1]", "result": "< 2.73", "unit": "pg/mL"}, {"measurement": "IL-3", "setting": "[1]", "result": "< 3.02", "unit": "pg/mL"}, {"measurement": "IL-4", "setting": "[1]", "result": "38,61 pg/ml"}, {"measurement": "IL-5", "setting": "[1]", "result": "< 2.74", "unit": "pg/mL"}, {"measurement": "IL-6", "setting": "[1]", "result": "< 2.42", "unit": "pg/mL"}, {"measurement": "IL-7", "setting": "[1]", "result": "< 2.06", "unit": "pg/mL"}, {"measurement": "IL-8", "setting": "[1]", "result": 1188, "unit": "pg/mL"}, {"measurement": "IL-9", "setting": "[1]", "result": "< 3.08", "unit": "pg/mL"}, {"measurement": "IL-10", "setting": "[1]", "result": "6,13 pg/ml"}, {"measurement": "IL-12p40", "setting": "[1]", "result": "< 3.69", "unit": "pg/mL"}, {"measurement": "IL-12p70", "setting": "[1]", "result": "0,58 pg/ml"}, {"measurement": "IL-15", "setting": "[1]", "result": "2,42 pg/ml"}, {"measurement": "IL-17A", "setting": "[1]", "result": "< 0.94", "unit": "pg/mL"}, {"measurement": "IP-10", "setting": "[1]", "result": "282,01 pg/ml"}, {"measurement": "RANTES", "setting": "[1]", "result": "715,62 pg/ml"}, {"measurement": "TGF-a", "setting": "[1]", "result": "< 2.64", "unit": "pg/mL"}, {"measurement": "TNFa", "setting": "[1]", "result": "9,49 pg/ml"}, {"measurement": "TNFb", "setting": "[1]", "result": "< 2.85", "unit": "pg/mL"}, {"measurement": "sCD40L", "setting": "[1]", "result": "3,22 pg/ml"}, {"measurement": "GM-CSF", "setting": "Monocytes", "result": "3,08 pg/ml"}, {"measurement": "IFNa2", "setting": "Monocytes", "result": "34,74 pg/ml"}, {"measurement": "IFNg", "setting": "Monocytes", "result": "38,2 pg/ml"}, {"measurement": "IL-1RA", "setting": "Monocytes", "result": "168,96 pg/ml"}, {"measurement": "IL-1a", "setting": "Monocytes", "result": "< 1.13", "unit": "pg/mL"}, {"measurement": "IL-1b", "setting": "Monocytes", "result": "< 2.88", "unit": "pg/mL"}, {"measurement": "IL-2", "setting": "Monocytes", "result": "< 2.73", "unit": "pg/mL"}, {"measurement": "IL-3", "setting": "Monocytes", "result": "3,38 pg/ml"}, {"measurement": "IL-5", "setting": "Monocytes", "result": "< 2.74", "unit": "pg/mL"}, {"measurement": "IL-6", "setting": "Monocytes", "result": "< 2.42", "unit": "pg/mL"}, {"measurement": "IL-7", "setting": "Monocytes", "result": "8,54 pg/ml"}, {"measurement": "IL-8", "setting": "Monocytes", "result": "755,68 pg/ml"}, {"measurement": "IL-9", "setting": "Monocytes", "result": "< 3.08", "unit": "pg/mL"}, {"measurement": "IL-10", "setting": "Monocytes", "result": "4,1 pg/ml"}, {"measurement": "IL-12p40", "setting": "Monocytes", "result": "17,59 pg/ml"}, {"measurement": "IL-12p70", "setting": "Monocytes", "result": "5,7 pg/ml"}, {"measurement": "IL-15", "setting": "Monocytes", "result": "4,8 pg/ml"}, {"measurement": "IP-10", "setting": "Monocytes", "result": "897,33 pg/ml"}, {"measurement": "RANTES", "setting": "Monocytes", "result": "312,51 pg/ml"}, {"measurement": "TGF-a", "setting": "Monocytes", "result": "< 2.64", "unit": "pg/mL"}, {"measurement": "TNFa", "setting": "Monocytes", "result": "6,47 pg/ml"}, {"measurement": "TNFb", "setting": "Monocytes", "result": "< 2.85", "unit": "pg/mL"}, {"measurement": "sCD40L", "setting": "Monocytes", "result": "20,8 pg/ml"}, {"measurement": "GM-CSF", "setting": "PBMC", "result": "0,66 pg/ml"}, {"measurement": "IFNa2", "setting": "PBMC", "result": "3,72 pg/ml"}, {"measurement": "IFNg", "setting": "PBMC", "result": "< 1.31", "unit": "pg/mL"}, {"measurement": "IL-1RA", "setting": "PBMC", "result": "62,83 pg/ml"}, {"measurement": "IL-1a", "setting": "PBMC", "result": "< 1.13", "unit": "pg/mL"}, {"measurement": "IL-1b", "setting": "PBMC", "result": "< 2.88", "unit": "pg/mL"}, {"measurement": "IL-2", "setting": "PBMC", "result": "< 2.73", "unit": "pg/mL"}, {"measurement": "IL-3", "setting": "PBMC", "result": "< 3.02", "unit": "pg/mL"}, {"measurement": "IL-4", "setting": "PBMC", "result": "38,61 pg/ml"}, {"measurement": "IL-5", "setting": "PBMC", "result": "< 2.74", "unit": "pg/mL"}, {"measurement": "IL-6", "setting": "PBMC", "result": "< 2.42", "unit": "pg/mL"}, {"measurement": "IL-7", "setting": "PBMC", "result": "< 2.06", "unit": "pg/mL"}, {"measurement": "IL-8", "setting": "PBMC", "result": 1591, "unit": "pg/mL"}, {"measurement": "IL-9", "setting": "PBMC", "result": "< 3.08", "unit": "pg/mL"}, {"measurement": "IL-10", "setting": "PBMC", "result": "< 1.47", "unit": "pg/mL"}, {"measurement": "IL-12p40", "setting": "PBMC", "result": "< 3.69", "unit": "pg/mL"}, {"measurement": "IL-12p70", "setting": "PBMC", "result": "0,29 pg/ml"}, {"measurement": "IL-15", "setting": "PBMC", "result": "< 2.08", "unit": "pg/mL"}, {"measurement": "IL-17A", "setting": "PBMC", "result": "< 0.94", "unit": "pg/mL"}, {"measurement": "IP-10", "setting": "PBMC", "result": 2236, "unit": "pg/mL"}, {"measurement": "RANTES", "setting": "PBMC", "result": "262,49 pg/ml"}, {"measurement": "TGF-a", "setting": "PBMC", "result": "< 2.64", "unit": "pg/mL"}, {"measurement": "TNFa", "setting": "PBMC", "result": "15,91 pg/ml"}, {"measurement": "TNFb", "setting": "PBMC", "result": "< 2.85", "unit": "pg/mL"}, {"measurement": "sCD40L", "setting": "PBMC", "result": "2,84 pg/ml"}, {"measurement": "Eotaxin", "setting": "PBMC; supernatant", "result": "3,21 pg/ml"}]}]}
